Data set [1] can be described thus: Drug level in human liver S9 fraction treated with BR101549. The data set is classed as ADME, subcellular.
Data set [2] in a line: Drug level in mouse liver S9 fraction treated with BR101549. It counts as ADME, subcellular.
The nature of data set [3]: Drug level in mouse liver S9 fraction treated with 2-(2-butyl-4-isopropyl-6-oxo-1-((2'-(5-oxo-4,5-dihydro-1,2,4-oxadiazol-3-yl)biphenyl-4-yl)methyl)-1,6-dihydropyrimidin-5-yl)acetic acid. It counts as ADME, subcellular.
The nature of data set [4]: Drug level in rat liver S9 fraction treated with BR101549. The data set is classed as ADME, subcellular.
Data set [5] is described as follows: Drug level in rat liver S9 fraction treated with 2-(2-butyl-4-isopropyl-6-oxo-1-((2'-(5-oxo-4,5-dihydro-1,2,4-oxadiazol-3-yl)biphenyl-4-yl)methyl)-1,6-dihydropyrimidin-5-yl)acetic acid. The data set is classed as ADME, subcellular.
Data set [6] can be described thus: Drug level in human liver S9 fraction treated with 2-(2-butyl-4-isopropyl-6-oxo-1-((2'-(5-oxo-4,5-dihydro-1,2,4-oxadiazol-3-yl)biphenyl-4-yl)methyl)-1,6-dihydropyrimidin-5-yl)acetic acid. It counts as ADME, subcellular.
Data set [7] concerns the target T1, Peroxisome proliferator-activated receptor gamma (Homo sapiens) (UniProt P37231).
T1 sequence (whole entry): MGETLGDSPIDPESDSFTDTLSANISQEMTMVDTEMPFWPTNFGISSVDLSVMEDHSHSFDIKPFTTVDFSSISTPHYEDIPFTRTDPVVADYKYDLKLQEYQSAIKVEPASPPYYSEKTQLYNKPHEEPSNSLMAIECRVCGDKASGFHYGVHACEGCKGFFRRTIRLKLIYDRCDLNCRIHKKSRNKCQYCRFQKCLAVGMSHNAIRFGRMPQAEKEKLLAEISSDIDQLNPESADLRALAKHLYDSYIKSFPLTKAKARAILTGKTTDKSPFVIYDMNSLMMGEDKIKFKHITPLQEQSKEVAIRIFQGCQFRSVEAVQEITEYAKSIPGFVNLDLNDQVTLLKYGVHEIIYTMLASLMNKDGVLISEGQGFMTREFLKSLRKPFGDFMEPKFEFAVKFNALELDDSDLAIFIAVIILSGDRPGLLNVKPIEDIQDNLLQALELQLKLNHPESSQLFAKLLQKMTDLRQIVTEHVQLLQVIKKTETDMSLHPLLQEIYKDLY
The experiment in a line: Agonist activity at human PPARgamma at 1 uM relative to pioglitazone.

Data set [8] addresses T2, Type-1 angiotensin II receptor (Homo sapiens, UniProt P30556).
T2 sequence (P30556 whole entry): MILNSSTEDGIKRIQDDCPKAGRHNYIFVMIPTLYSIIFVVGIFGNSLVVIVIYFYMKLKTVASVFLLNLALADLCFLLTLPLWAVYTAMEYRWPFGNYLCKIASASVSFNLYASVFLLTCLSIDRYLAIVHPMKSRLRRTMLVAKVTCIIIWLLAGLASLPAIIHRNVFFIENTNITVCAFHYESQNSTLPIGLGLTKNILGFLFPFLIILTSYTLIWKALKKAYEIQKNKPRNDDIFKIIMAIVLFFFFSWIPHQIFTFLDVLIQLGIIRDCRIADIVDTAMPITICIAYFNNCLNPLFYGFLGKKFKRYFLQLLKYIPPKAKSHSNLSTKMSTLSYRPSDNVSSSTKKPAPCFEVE
The data set is described as follows: Antagonist activity at type-1 angiotensin 2 receptor (unknown origin) by calcium mobilizing assay. It counts as functional.

Data set [9] concerns the target T3, Peroxisome proliferator-activated receptor gamma (Homo sapiens, UniProt P37231).
T3 sequence (P37231 whole entry): T1 sequence (whole entry)
The data set is described as follows: Agonist activity at human PPARgamma.

In another data set the test system is Mus musculus. The experiment in a line: Antidiabetic activity in db/db mouse assessed as random blood glucose level at 20 mg/kg, po administered once daily for 13 days measured post last dose (reference value: 530 mg/dl). The data set is classed as functional.
Data set [10] is described as follows: Toxicity in db/db mouse assessed as body weight at 20 mg/kg, po administered once daily for 13 days (reference value: 33.5 g). The data set is classed as organism-based. The conditions noted are these: in vivo, 312 h.
A short description of data set [11]: Stability in mouse liver microsomes assessed as parent compound remaining after 30 mins. It counts as ADME, Microsome. The conditions noted are these: read-out: Stability. In general terms: Liver microsomes are vesicles of endoplasmic reticulum, rich in cytochrome P450 enzymes.
Data set [12] can be described thus: Drug metabolism in rat liver S9 fraction assessed as acylglucuronide formation. The data set is classed as ADME, subcellular.
Data set [13] is described as follows: Stability in human liver microsomes assessed as parent compound remaining after 30 mins. The data set is classed as ADME, Microsome. The conditions noted are these: read-out: Stability.
Data set [14] is described as follows: Drug metabolism in mouse liver S9 fraction assessed as acylglucuronide formation. The data set is classed as ADME, subcellular.
The nature of data set [15]: Drug metabolism in human liver S9 fraction assessed as acylglucuronide formation. The data set is classed as ADME, subcellular.

The text below walks through data of ChEMBL document CHEMBL4330101, “Identification of BR101549 as a lead candidate of non-TZD PPARγ agonist for the treatment of type 2 diabetes: Proof-of-concept evaluation and SAR” (Bioorg Med Chem Lett, 2019).

The structures appear in SMILES notation.

As for `CCCCc1nc(C(C)C)c(CC(=O)O[C@@H]2O[C@H](C(=O)O)[C@@H](O)[C@H](O)[C@H]2O)c(=O)n1Cc1ccc(-c2ccccc2-c2noc(=O)[nH]2)cc1`, the Drug metabolism result is “Metabolite_Notdetected” in [1]; “Metabolite_Notdetected” in data set [2]; “Metabolite_Detected” in data set [3]; “Metabolite_Notdetected” in data set [4]; “Metabolite_Detected” in data set [5]; “Metabolite_Detected” in data set [6].

As to `CCCCc1nc(C(C)C)c(CC(=S)N2CCCC2)c(=O)n1Cc1ccc(-c2ccccc2-c2noc(=O)[nH]2)cc1`, the max activation in data set [7] was 66%. In addition, in data set [8], the IC50 (in general, the midpoint of a concentration-inhibition curve) is 0.0022 µM. Further, the EC50 – broadly, the concentration at which the effect is half-maximal – in data set [9] amounted to 3.1 µM.

Turning to `CCc1ccc(CCOc2ccc(CC3SC(=O)NC3=O)cc2)nc1` (stereo not drawn) [PIOGLITAZONE], the Activity with Mus musculus worked out at 213 mg/dL; in [10], 32.3 g.

Take `CCCCc1nc(C(C)C)c(CC(=O)O)c(=O)n1Cc1ccc(-c2ccccc2-c2noc(=O)[nH]2)cc1`: the max activation in data set [7] is 2%. Also, the remaining at 0.5 h in data set [11] was determined as 100%; in [13], 86.8%. Moreover, the Drug metabolism result in [12], in data set [14] and in data set [15] was “Metabolite_Detected” in each case. The 50% effective concentration (EC50) in data set [9] came out at 10.3 µM.
